Assay results: US20190275012A9, “SUBSTITUTED THIAZOLO-PYRIDINE COMPOUNDS AS MALT1 INHIBITORS” (Lupin Limited, priority 2016, published 2019)

Assays:
OCI-Ly-10 cells = test: Anticancer assay (14 days), cell viability by CCK-8; assay type: cell-based; details: Homo sapiens, OCI-Ly10, 336 h, 14 days treatment, fresh treatment every 5th day, CCK-8 viability, read-out: Ly-10 (14d) inhibition IC50
In short: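 OCI-Ly-10 cells in IMDM + 20% FBS exposed to compound for 13–15 days, with media and compound refreshed every 5th day. Viability by CCK-8 absorbance at 450 nm (650 nm background); % inhibition versus 0.1% DMSO medium control.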

full length MALT1 enzyme = target: T1, full length MALT1 enzyme (Homo sapiens, UniProt Q9UDY8); test: MALT1 biochemical assay (fluorescence based, Ac-Leu-Arg-Ser-Arg-AMC cleavage); details: full length MALT1 protein, 2 h pre-incubation at RT, tetrapeptide substrate Ac-Leu-Arg-Ser-Arg-AMC, read-out: Malt 1 inhibition IC50
T1 construct: a fluorescence based assay with full length MALT1 enzyme
T1 sequence (Q9UDY8 1-824): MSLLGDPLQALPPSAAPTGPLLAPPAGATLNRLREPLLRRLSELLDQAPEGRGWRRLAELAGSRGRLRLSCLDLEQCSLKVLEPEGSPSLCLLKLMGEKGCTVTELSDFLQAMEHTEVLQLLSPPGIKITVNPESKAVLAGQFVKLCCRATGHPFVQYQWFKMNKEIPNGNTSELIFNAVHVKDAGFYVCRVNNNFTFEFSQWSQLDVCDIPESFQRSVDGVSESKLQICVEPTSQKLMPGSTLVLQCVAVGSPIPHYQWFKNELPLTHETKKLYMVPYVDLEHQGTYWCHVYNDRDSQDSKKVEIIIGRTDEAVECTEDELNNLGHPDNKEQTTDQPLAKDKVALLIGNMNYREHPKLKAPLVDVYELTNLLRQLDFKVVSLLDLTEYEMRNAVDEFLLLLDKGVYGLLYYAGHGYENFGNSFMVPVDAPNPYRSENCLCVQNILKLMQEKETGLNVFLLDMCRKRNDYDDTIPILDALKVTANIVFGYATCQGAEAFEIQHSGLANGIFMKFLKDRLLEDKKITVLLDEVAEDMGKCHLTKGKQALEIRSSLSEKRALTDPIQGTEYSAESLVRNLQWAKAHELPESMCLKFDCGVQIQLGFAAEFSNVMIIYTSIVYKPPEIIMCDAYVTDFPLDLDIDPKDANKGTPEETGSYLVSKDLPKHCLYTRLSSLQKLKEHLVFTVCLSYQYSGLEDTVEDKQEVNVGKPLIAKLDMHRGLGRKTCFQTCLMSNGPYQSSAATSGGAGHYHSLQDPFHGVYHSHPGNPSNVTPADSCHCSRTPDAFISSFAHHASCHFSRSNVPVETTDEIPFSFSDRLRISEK
In short: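 Full-length MALT1 (100-300 ng/well) was pre-incubated with compound for 2 h at RT, then 100 μM Ac-LRSR-AMC was added for 4-12 h. Buffer was 50 mM MES, 150 mM NaCl, 0.1% CHAPS, 1 M ammonium citrate, 10 mM DTT, pH 7, with 0.5% DMSO. IC50 was derived from AMC fluorescence (ex 360/em 460 nm).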

[1] = test system: NF-kB transcriptional activity in HEK-293-NF-kB-Luc cell line overexpressing MALT1; test: NF-kB reporter assay (luciferase, MALT1 stably overexpressed); assay type: cell-based; details: Homo sapiens, 24 h, HEK-293-NF-kB-Luc cells stably overexpressing MALT1, 24 h treatment, Bright Glo luminescence; read-out: NF-kB inhibition IC50
In short: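 HEK-293-NF-κB-Luc cells stably overexpressing MALT1 were seeded overnight, then exposed to test compounds for 24 h. Bright Glo added 10 min at ambient temperature and luminescence read; % inhibition calculated against 0.1% DMSO controls.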

| Compound | IC50 (OCI-Ly-10 cells) [nM] | IC50 (full length MALT1 enzyme) [nM] | IC50 [1] [nM] |
| --- | --- | --- | --- |
| COc1ncc(Cl)cc1NC(=O)Nc1cnc2sc(C)nc2c1C1CC1 [Compound 192, 1-(5-Chloro-2-methoxypyridin-3-yl)-3-(7-cyclopropyl-2-methylthiazolo[5,4-b]pyridin-6-yl)urea] | 501 to 1500 | 51 to 100 | 101 to 500 |
| CCc1c(NC(=O)Nc2cnc(OC)c(Cl)c2)cnc2sc(C)nc12 [Compound 26, 1-(5-Chloro-6-methoxypyridin-3-yl)-3-(7-ethyl-2-methylthiazolo[5,4-b]pyridin-6-yl)urea] | 101 to 250 | 1 to 50 | 101 to 500 |
| Cc1nc2c(C3=CCCCC3)c(NC(=O)Nc3cnc(-n4nccn4)c(Cl)c3)cnc2s1 [Compound 59, 1-(5-Chloro-6-(2H-1,2,3-triazol-2-yl)pyridin-3-yl)-3-(7-(cyclohex-1-en-1-yl)-2-methylthiazolo[5,4-b]pyridin-6-yl)urea] | 26 to 100 | 1 to 50 | 101 to 500 |
| Cc1nc2c(C3(CF)CC3)c(NC(=O)Nc3ccc(-n4nccn4)c(Cl)c3)cnc2s1 [Compound 107, 1-(3-Chloro-4-(2H-1,2,3-triazol-2-yl)phenyl)-3-(7-(1-(fluoromethyl)cyclopropyl)-2-methylthiazolo[5,4-b]pyridin-6-yl)urea] | 101 to 250 | 1 to 50 | 1 to 100 |
| COC(C)(C)c1c(NC(=O)Nc2cnc(-n3nccn3)c(C(F)(F)F)c2)cnc2sc(C)nc12 [Compound 96, 1-(6-(2H-1,2,3-Triazol-2-yl)-5-(trifluoromethyl)pyridin-3-yl)-3-(7-(2-methoxypropan-2-yl)-2-methylthiazolo[5,4-b]pyridin-6-yl)urea] | 0.1 to 25 | 1 to 50 | 1 to 100 |
| CCC(c1c(NC(=O)Nc2cnc(-n3nccn3)c(C(F)(F)F)c2)cnc2sc(C)nc12)N(C)C (single isomer, unassigned) [Compound 75b, 1-(6-(2H-1,2,3-Triazol-2-yl)-5-(trifluoromethyl)pyridin-3-yl)-3-(7-(1-(dimethylamino)propyl)-2-methylthiazolo[5,4-b]pyridin-6-yl)urea] | 26 to 100 | 51 to 100 | 1 to 100 |
| COC(c1c(NC(=O)Nc2cnc(-n3nccn3)c(Cl)c2)cnc2sc(C)nc12)C(C)C (single isomer, unassigned) [Compound 79b, 1-(5-Chloro-6-(2H-1,2,3-triazol-2-yl)pyridin-3-yl)-3-(7-(1-methoxy-2-methylpropyl)-2-methylthiazolo[5,4-b]pyridin-6-yl)urea] | 26 to 100 | 1 to 50 | 1 to 100 |
| Cc1nc2c(C3CC3)c(NC(=O)Nc3cnc(-n4nccn4)c(Cl)c3)cnc2s1 [Compound 9, 1-(5-Chloro-6-(2H-1,2,3-triazol-2-yl)pyridin-3-yl)-3-(7-cyclopropyl-2-methylthiazolo[5,4-b]pyridin-6-yl)urea] | 26 to 100 | 1 to 50 | 1 to 100 |
| CCC(OC)c1c(NC(=O)Nc2cnc(-n3nccn3)c(Cl)c2)cnc2sc(C)nc12 (single isomer, unassigned) [Compound 145b, 1-(5-Chloro-6-(2H-1,2,3-triazol-2-yl)pyridin-3-yl)-3-(7-(1-methoxypropyl)-2-methylthiazolo[5,4-b]pyridin-6-yl)urea] | 0.1 to 25 | 1 to 50 | 1 to 100 |
| COC(C)c1c(NC(=O)Nc2ccc(-n3nccn3)c(C(F)(F)F)c2)cnc2sc(C)nc12 (single isomer, unassigned) [Compound 143b, 1-(4-(2H-1,2,3-Triazol-2-yl)-3-(trifluoromethyl)phenyl)-3-(7-(1-methoxyethyl)-2-methylthiazolo[5,4-b]pyridin-6-yl)urea] | 0.1 to 25 | 1 to 50 | 1 to 100 |
| COC(c1ccc(F)cc1)c1c(NC(=O)Nc2cnc(-n3nccn3)c(C(F)(F)F)c2)cnc2sc(C)nc12 (single isomer, unassigned) [Compound 85a, 1-(6-(2H-1,2,3-Triazol-2-yl)-5-(trifluoromethyl)pyridin-3-yl)-3-(7-((4-fluorophenyl)(methoxy)methyl)-2-methylthiazolo[5,4-b]pyridin-6-yl)urea] | 101 to 250 | 1 to 50 | 1 to 100 |
| Cc1nc2c(N3CCOCC3)c(NC(=O)Nc3cnc(-n4nccn4)c(Cl)c3)cnc2s1 [Compound 28, 1-(5-Chloro-6-(2H-1,2,3-triazol-2-yl)pyridin-3-yl)-3-(2-methyl-7-morpholinothiazolo[5,4-b]pyridin-6-yl)urea] | 501 to 1500 | 1 to 50 | 101 to 500 |
| Cc1nc2c(C(C3CC3)N(C)C)c(NC(=O)Nc3cnc(-n4nccn4)c(C(F)(F)F)c3)cnc2s1 (single isomer, unassigned) [Compound 76b, 1-(6-(2H-1,2,3-Triazol-2-yl)-5-(trifluoromethyl)pyridin-3-yl)-3-(7-(cyclopropyl(dimethylamino)methyl)-2-methylthiazolo[5,4-b]pyridin-6-yl)urea] | 0.1 to 25 | 1 to 50 | 1 to 100 |
| COC(c1c(NC(=O)Nc2cnc(-n3nccn3)c(C(F)(F)F)c2)cnc2sc(C)nc12)C(F)(F)F (single isomer, unassigned) [Compound 95b, 1-(6-(2H-1,2,3-triazol-2-yl)-5-(trifluoromethyl)pyridin-3-yl)-3-(2-methyl-7-(2,2,2-trifluoro-1-methoxyethyl)thiazolo[5,4-b]pyridin-6-yl)urea] | 0.1 to 25 | 1 to 50 | 1 to 100 |
| COc1ncc(NC(=O)Nc2cnc3sc(C)nc3c2C2CC2)cc1Cl [Compound 1, 1-(5-Chloro-6-methoxypyridin-3-yl)-3-(7-cyclopropyl-2-methylthiazolo [5,4-b]pyridin-6-yl)urea] | 101 to 250 | 1 to 50 | 1 to 100 |
| COc1nc(-n2nccn2)c(Cl)cc1NC(=O)Nc1cnc2sc(C)nc2c1C(OC)C(C)C (single isomer, unassigned) [Compound 81b, 1-(5-Chloro-2-methoxy-6-(2H-1,2,3-triazol-2-yl)pyridin-3-yl)-3-(7-(1-methoxy-2-methylpropyl)-2-methylthiazolo[5,4-b]pyridin-6-yl)urea] | 26 to 100 | 1 to 50 | 1 to 100 |
| Cc1nc2c(C(C)C)c(NC(=O)Nc3cnc(-n4nccn4)c(Cl)c3)cnc2s1 [Compound 115, 1-(5-Chloro-6-(2H-1,2,3-triazol-2-yl)pyridin-3-yl)-3-(7-isopropyl-2-methylthiazolo[5,4-b]pyridin-6-yl)urea] | 26 to 100 | 1 to 50 | 1 to 100 |
| COc1nc(-n2nccn2)c(C(F)(F)F)cc1NC(=O)Nc1cnc2sc(C)nc2c1C(OC)C(C)C (single isomer, unassigned) [Compound 80b, 1-(7-(1-Methoxy-2-methylpropyl)-2-methylthiazolo[5,4-b]pyridin-6-yl)-3-(2-methoxy-6-(2H-1,2,3-triazol-2-yl)-5-(trifluoromethyl)pyridin-3-yl)urea] | 26 to 100 | 1 to 50 | 1 to 100 |
| COc1ccc(NC(=O)Nc2cnc3sc(C)nc3c2C2CC2)cc1Cl [Compound 2, 1-(3-Chloro-4-methoxyphenyl)-3-(7-cyclopropyl-2-methylthiazolo[5,4-b]pyridin-6-yl)urea] | 251 to 500 | 1 to 50 | 501 to 1500 |
| Cc1nc2c(C3CC3)c(NC(=O)Nc3ccc(-n4nccn4)c(Cl)c3)cnc2s1 [Compound 168, 1-(3-Chloro-4-(2H-1,2,3-triazol-2-yl)phenyl)-3-(7-cyclopropyl-2-methylthiazolo[5,4-b]pyridin-6-yl)urea] | 251 to 500 | 1 to 50 | 501 to 1500 |
